Laboratory results: patent publication US10953026B2, “N-acetyl mannosammine as a therapeutic agent” (THE UNITED STATES OF AMERICA, as represented by the …, priority 2007, dated 2021)
“And” between values parts separate entries of the source, which are not always exact repeats. Identical values can stand only once. “Also recorded” adds a separate entry of the source.

Columns and labels:
cultured cells = conditions: incubation of cultured cells; cited from earlier work
PSA-NCAM = assay: Immunoblots with PSA-NCAM antibodies (sialylation status); assay type: in vivo, mouse
From the text: (§1) A rabbit polyclonal antibody was custom prepared against a Gne/Mnk peptide comprising amino acids 588-607 ([…], SEQ ID NO:8), coupled to keyhole limpet hemocyanine, and affinity purified against the corresponding antigenic peptide (Covance). The following additional primary antibodies were commercially obtained: dystrophin (catalog no. ab15277; Abcam); α-dystroglycan (clone IIH6C4; Upstate Biotechnology); laminin-1 (catalog no. L9393; Sigma-Aldrich); podocalyxin (catalog no. PODX11-A; Alpha Diagnostic International); podocin (catalog no. P0372; Sigma-Aldrich); laminin β1 (catalog no. MAB1928; Millipore); desmin (catalog no. 1466-1; Epitomics); α-SMA (SPM332; GeneTex Inc.); PSA-NCAM (catalog no. MAB5324; Millipore); and β-actin (catalog no. AAN01; Cytoskeleton).
Mouse tissues (age P2) were extracted, homogenized in CelLytic buffer consisting of a mild detergent, bicine buffer, and 150 mM NaCl (Sigma-Aldrich) supplemented with protease inhibitors (Complete Mini; Roche Applied Science). The lysates were sonicated and cleared by centrifugation (1000 g for 10 minutes), and the resulting supernatants were assayed for protein (BCA Protein Assay; Pierce Biotechnology). […]
The degree of sialylation of two heavily sialylated marker proteins, PSA-NCAM and podocalyxin was evaluated. […]

[1] = Tolerability and growth of ManNAc-treated mice; assay type: in vivo
Protocol: (§2) Breeding pairs of 6-week-old GneM^712T/+ mice were divided into 3 groups. Group I consisted of 9 GneM^712T/+ breeding pairs, who were administered untreated sterilized tap water. Group II consisted of 1 breeding pair of Gne^+/+ mice (wild-type control) and 6 GneM^712T/+ breeding pairs, who were administered water containing 1 mg/ml (˜0.2 g/kg/day) ManNAc (Sigma-Aldrich). […] Group III consisted of 1 Gne^+/+ breeding pair and 7 GneM^712T/+ breeding pairs, who were administered water supplemented with 5 mg/ml (˜1.0 g/kg/day) ManNAc. Water was changed twice weekly. Nursing females continued to be supplied with ManNAc. All mice were weaned from ManNAc at 21 days. Selected whole litters were euthanized at age P2, P6, and P19 for histological, genetic, biochemical, or ultrastructural analysis.

[2] = single dose of 0.142 g/kg/day; cited from earlier work
podocalyxin = assay: Immunoblots of kidney extracts with podocalyxin antibodies (sialylation status); assay type: in vivo, mouse; conditions: after ManNAc treatment, P2
From the text: as §1
The lysates were sonicated and cleared by centrifugation (1000 g for 10 minutes), and the resulting supernatants were assayed for protein (BCA Protein Assay; Pierce Biotechnology). For the neuraminidase enzymatic treatments (FIG. 6E), protein homogenates (25 mg) were incubated for 30 min at 37° C. with 1 mU/mg of neuraminidase (catalog no. N6514; Sigma-Aldrich). Equal amounts of protein ([…]) were electrophoresed on 4%-12% Tris-Glycine gels (Novex; Invitrogen), and electroblotted onto […] Hybond ECL nitrocellulose membranes (GE Healthcare). […]

Gne^M712T/M712T mice [3] = assay: Rescue by ManNAc feeding: survival of homozygous mutant pups (ManNAc in drinking water of breeding pairs); assay type: in vivo, mouse
From the text: Gne^M712T/M712T mice. Gne^M712T/M712T knockin mice were generated by targeting the M712T (ATG to ACG) mutation of exon 12 of the murine Gne gene (Gne, Uae1, GenBank NM_015828) (FIG. 2A). The nucleotide sequence for this Gne, Uae1 allele (GenBank NM_015828) without the mutation is shown below for easy reference (SEQ ID NO:3).
The mutant mice were maintained in the C57BL/6J background. Animals were housed in an accredited specific pathogen-free facility in accordance with accepted guidelines. Cages were ventilated in a temperature- and light-controlled environment (22° C., 30%-70% humidity, 12-hour light/12-hour dark cycle). The mice were fed irradiated chow (Prolab 5P75 Isopro 3000; PMI Nutrition International) and sterile water ad libitum. All euthanasia was performed by CO2 inhalation followed by cervical dislocation.
as §2
Differences between data groups were evaluated for significance using the 2-tailed Student's t test of unpaired data. For Mendelian distribution analysis, a goodness-of-fit (χ2) test was performed, while for comparisons of survival between treated and untreated mice of all genotypes (Gne^+/+, GneM^712T/+, and GneM^712T/M712T), a 2-tailed Fisher's exact test using a 2×3 table was employed. All data are presented as the mean±SD. A P value less than 0.05 was considered statistically significant.

Gne^M712T/M712T mice [4] = assay: Electron microscopy of kidney glomeruli after ManNAc treatment; assay type: in vivo, mouse; conditions: age P19, versus untreated Gne^M712T/M712T
Protocol: Kidney samples were fixed overnight at 4° C. in 2% glutaraldehyde in 0.1 M cacodylate buffer (pH 7.4) and washed with cacodylate buffer. After postfixation with 1% OsO4 for 2 hours and a second wash with 0.1 M cacodylate buffer, the tissues were serially dehydrated in ethanol and embedded in Eponate 12 resin (Ted Pella). Thin sections (˜80 nm) were obtained using a Leica Ultracut UCT Ultramicrotome (Leica Microsystems), placed onto 400 mesh copper grids, and stained with saturated uranyl acetate in 50% methanol followed by lead citrate. The grids were viewed with a Philips 410 electron microscope (FEI Company) at 80 kV, and images were recorded on Kodak SO-163 film (Kodak).
as §2

Gne/Mnk protein = assay: Immunoblots of muscle and kidney extracts with anti-Gne/Mnk antibodies; assay type: in vivo, mouse
From the text: as §1
Mouse tissues (age P2) were extracted, homogenized in CelLytic buffer consisting of a mild detergent, bicine buffer, and 150 mM NaCl (Sigma-Aldrich) supplemented with protease inhibitors (Complete Mini; Roche Applied Science). The lysates were sonicated and cleared by centrifugation (1000 g for 10 minutes), and the resulting supernatants were assayed for protein (BCA Protein Assay; Pierce Biotechnology). For the neuraminidase enzymatic treatments (FIG. 6E), protein homogenates ([…]) were incubated for 30 min at 37° C. with 1 mU/mg of neuraminidase (catalog no. N6514; Sigma-Aldrich). Equal amounts of protein ([…]) were electrophoresed on 4%-12% Tris-Glycine gels (Novex; Invitrogen), and electroblotted onto […] Hybond ECL nitrocellulose membranes (GE Healthcare). The membranes were blocked (10% fat-free milk) and incubated with primary antibodies followed by HRP-conjugated secondary antibodies (GE Healthcare). Results were visualized with ECL (ECL Western Blotting Detection Reagents; GE Healthcare) and exposure to CL-XPosure Film (Pierce Biotechnology). Densitometry was performed on the digital images obtained with a Kodak Image Station and software (PerkinElmer). The protein levels were normalized to those of β-actin to correct for differences in protein loading and/or transfer. […]

Gne^M712T/M712T mice [5] = assay: Mouse histology (H&E) after ManNAc treatment; assay type: in vivo
Protocol: Mouse tissues were collected, formalin fixed (10%) and paraffin embedded. Tissue sections ([…]) were stained with H&E following standard procedures (American Histolabs) or subjected to immunohistochemistry with a variety of primary antibodies. Formalin-fixed tissues were deparaffinized in HistoClear II (National Diagnostics) and […] in a series of ethanol solutions. Antigen retrieval was performed for sections that were to be stained with antibodies against Gne/Mnk (by boiling 5 minutes in citric acid-based solution; Vector Laboratories) and against dystrophin (by boiling in 1 mM EDTA according the manufacturer's protocol; AbCam). The sections were blocked (2% BSA, 10% donkey serum, and 0.1% Triton X-100 in PBS) and incubated with primary antibodies (Gne/Mnk 1:50; laminin 1:25; dystrophin 1:50) overnight at 4° C., followed by incubation with the secondary antibody, Alexa Fluor 488-conjugated donkey anti-rabbit (1:500 in blocking solution) (Invitrogen). The sections were mounted in VECTASHIELD Mounting Medium (Vector Laboratories) and viewed and digitally imaged with a Zeiss Axiovert 200M microscope (Zeiss).
as §2

Gne/Mnk epimerase = assay: Gne-epimerase enzymatic assay in skeletal muscle of ManNAc-treated mice; assay type: in vivo, mouse
Protocol: as §2
Mouse kidney and skeletal muscle (quadriceps) tissues were homogenized and subjected to the Gne-epimerase enzymatic assay as previously described (11, 58). This assay was based on incubation with radiolabeled substrate (Uridine diphosphate N-acetyl glucosamine [1-^3H]; American Radiolabeled Chemicals Inc.) and detection of radiolabeled product ([^3H]ManNAc) upon separation of oligosaccharides by high-pH anion-exchange chromatography with pulsed amperometric detection (Dionex).

laminin-1 = assay: Immunoblots of kidney extracts with laminin-1 antibodies; assay type: in vivo, mouse; conditions: Gne^+/+ and Gne^M712T/M712T littermates
From the text: as §1
Mouse tissues (age P2) were extracted, homogenized in CelLytic buffer consisting of a mild detergent, bicine buffer, and 150 mM NaCl (Sigma-Aldrich) supplemented with protease inhibitors (Complete Mini; Roche Applied Science). The lysates were sonicated and cleared by centrifugation (1000 g for 10 minutes), and the resulting supernatants were assayed for protein (BCA Protein Assay; Pierce Biotechnology). For the neuraminidase enzymatic treatments (FIG. 6E), protein homogenates (25 mg) were incubated for 30 min at 37° C. with 1 mU/mg of neuraminidase (catalog no. N6514; Sigma-Aldrich). […]

[6] = system: Gne-deficient mouse embryonic stem cells; conditions: growth medium supplemented with ManNAc; cited from earlier work
[7] = ~1.0 g/kg/d in drinking water, mice
[8] = 3.5 months of age, ManNAc until P21

CC(=O)CCC(=O)N[C@@H]1C(O)O[C@H](CO)[C@@H](O)[C@@H]1O (stereo partly shown) [ManLev, N-levulinoylmannosamine]
incorporation of sialic acid analogs (SiaLev or SiaNAz) into cell surface glycoconjugates (cultured cells): incorporation of the downstream sialic acid analogs

CC(=O)N[C@H]1[C@@H](O)[C@H](O)[C@@H](CO)O[C@H]1O [ManNAc, N-acetyl-D-mannosamine]
PSA-NCAM expression in muscle and kidney upon treatment (PSA-NCAM; P2): no change | increase of PSA-NCAM signal intensity in Gne^M712T/M712T brain versus untreated (PSA-NCAM; brain extracts, P=0.08): 2%-28% and 2% to 28% | size of surviving Gne^M712T/M712T mice versus littermates ([1]; ManNAc ~1 g/kg/d): remained smaller than their littermates | weight of surviving Gne^M712T/M712T mice relative to wild-type littermates ([1]; ManNAc ~1.0 g/kg/day): 70%-100% | side effects [1, 7]: no side effects were attributed to the treatment | tolerability [1, 7]: well tolerated | safety in humans [2]: evidence of the safety | sialylation of podocalyxin in Gne^M712T/M712T kidney (podocalyxin): markedly improved; also recorded: changed significantly | pups died at age P1-P3 (number) (Gne^M712T/M712T mice [3]; 1 mg/ml (~0.2 g/kg/d), 7 litters): 13 | surviving homozygous Gne^M712T/M712T mice beyond age P3 (Gne^M712T/M712T mice [3]; 1 mg/ml (~0.2 g/kg/day) in drinking water, 51 offspring): no surviving homozygous | homozygous mutant pups died at age P1-P3 (number) (Gne^M712T/M712T mice [3]; 5 mg/ml (~1 g/kg/d), 13 litters): 14 | Gne^M712T/M712T mice that died between P6 and P12, of the twelve that survived past P3 (Gne^M712T/M712T mice [3]; 5 mg/ml (~1.0 g/kg/day)): nine | Gne^M712T/M712T pups surviving beyond P3 (number) (Gne^M712T/M712T mice [3]; 5 mg/ml (~1.0 g/kg/day) in drinking water, 102 newborns, P=0.01 vs 1 untreated survivor): 12 | Gne^M712T/M712T mice that survived past P21 (Gne^M712T/M712T mice [3]; 5 mg/ml (~1.0 g/kg/day), ManNAc ceased at P21): Two | myopathic features of the surviving Gne^M712T/M712T mouse (Gne^M712T/M712T mice [3]; 6 months old, ManNAc until P21): no obvious myopathic features | survival beyond P3, share of Gne^M712T/M712T pups (Gne^M712T/M712T mice [3]; ManNAc administration): 43% | filtration slits / open slit diaphragms (Gne^M712T/M712T mice [4]): greater number of open slit diaphragms; also recorded: improved | overall integrity of the GBM (Gne^M712T/M712T mice [4]): significantly improved | podocyte foot processes (fusion, flattening, formation) (Gne^M712T/M712T mice [4]): less fusion and flattening; also recorded: improved | Gne/Mnk protein in Gne^M712T/M712T kidney compared with Gne^+/+ littermates (Gne/Mnk protein; after ManNAc (32.1% untreated), relative to β-actin, P=0.006): 62.2% | Gne/Mnk protein in Gne^M712T/M712T muscle compared with Gne^+/+ littermates (Gne/Mnk protein; after ManNAc (38.5% untreated), relative to β-actin, P=0.12): 68.8% | Gne/Mnk protein expression in Gne^M712T/M712T tissues versus untreated (Gne/Mnk protein; muscle and kidney, ManNAc feeding): increased | kidney histology of Gne^M712T/M712T survivor (urinary space and tubules) (Gne^M712T/M712T mice [5]; [8]): mild red blood cell infiltrations | skeletal muscle histology of Gne^M712T/M712T survivor (Gne^M712T/M712T mice [5]; [8]): no structural or inflammatory abnormalities | cystic tubular dilatations in cortex and medulla (Gne^M712T/M712T mice [5]; age P6): fewer cystic tubular dilatations | kidney histology compared with untreated Gne^M712T/M712T mice at P2 (Gne^M712T/M712T mice [5]; age P6): significant histological improvement | abnormalities in liver, heart or skeletal muscle tissues (Gne^M712T/M712T mice [5]; age P6, treated Gne^M712T/M712T mice): no abnormalities | red blood cell infiltrates in tubules and Bowman space (Gne^M712T/M712T mice [5]; age P6, versus untreated at P2): reduced red blood cell infiltrates; also recorded: less severe | Gne activity in Gne^M712T/M712T muscle, of untreated Gne^+/+ mean (Gne/Mnk epimerase; homozygous mutant skeletal muscle, after ManNAc (19.4% untreated), n=7, P=0.05): 31% (±8.4) | Gne activity in Gne^+/+ muscle, of untreated Gne^+/+ mean (Gne/Mnk epimerase; wild-type skeletal muscle, after ManNAc, n=3, P=0.2): 114% (±19.7) | laminin-1 intensity / pattern in kidney without or with ManNAc treatment (laminin-1): No difference | sialylation of hyposialylated cells [6]: became resialylated

[N-]=[N+]=NCC(=O)N[C@@H]1C(O)O[C@H](CO)[C@@H](O)[C@@H]1O (stereo partly shown) [ManNAz, N-azidoacetyl-mannosamine]
incorporation of sialic acid analogs (SiaLev or SiaNAz) into cell surface glycoconjugates (cultured cells): incorporation of the downstream sialic acid analogs
